{
  "source": "patent US10329336B2",
  "about": "“Antimicrobial kinocidin compositions and methods of use” (LA Biomedical Research Institute at Harbor-UCLA Medical …, priority 2006, dated 2019)",
  "key": {"C. albicans ATCC 36082": {"system": "C. albicans ATCC 36082", "assay": "Solution-phase microbicidal assay", "type": "cell-based, Candida albicans", "procedure": "One million CFU of the indicated microorganism per milliliter were incubated with peptide (0.00125-20.0 nmol/ml) in either MES (2.0 mM, pH 5.5) or PIPES (10.0 mM, pH 7.5) for one hour at 37° C. Surviving CFU were enumerated and are described as change in the initial log 10 CFU. ∘, S. aureus ATCC 27217; ●, S. typhimurium strain 5990s; □, C. albicans ATCC 36082. Data are means±SD (minimum n=2).\n(§1) Briefly, the antimicrobial assays were performed against a panel of prototype human pathogens as previously detailed (Yoshimura, T., Matsushima, K., Tanaka, S., Robinson, E. A., Appella, E., Oppenheim, J. J. & Leonard, E. J. (1987) Proc Natl Acad Sci USA 84, 9233-7): Staphylococcus aureus (ATCC 27217; Gram-positive bacterium); Salmonella typhimurium (5996s; Gram-negative bacterium); and the fungus Candida albicans (ATCC 36082). Defensin HNP-1 was included in each assay as an internal control, and all assays were conducted a minimum of two independent times. Results of independent assays were analyzed using Wilcoxon Rank Sum analysis with Bonferroni correction for multiple comparisons.\nTo characterize IL-8's antimicrobial activity in more detail, a quantitative solution-phase assay was carried out at pH 5.5 and 7.5. Organisms were prepared and adjusted to 10^6 CFU/ml in PIPES or MES buffer as above but lacking agarose, and dispensed (5×10^4 CFU per 50 μl aliquot). Peptide (concentration range, 20-0.00125 nmol/ml) was introduced into the assay medium, and incubated for 1 hour at 37° C. After incubation, media were serially diluted and plated in triplicate for enumeration. […] IL-8 was also fungicidal for C. albicans at pH 7.5, with a 2-log reduction in surviving CFU over 1 hour at a concentration of 2.5 nmol/ml."}, "[1]": {"system": "Salmonella typhimurium (5996s)", "assay": "Solid-phase antimicrobial assay of kinocidins", "type": "cell-based", "conditions": "S. typhimurium (Gram-negative); pH 5.5 or 7.5, not separated; 0.5 nmol/well", "procedure": "(§2) Peptides (0.5 nmol) were introduced into wells in agarose plates buffered with MES (2.0 mM, pH 5.5) or PIPES (10.0 mM, pH 7.5). Antimicrobial activity was assessed as the zone of complete (blue) or partial (red) inhibition around the well. Abbreviations are: Native IL-8 (IL-8); IL-8α, (α); IL-8γ, (γ); IL-8α+IL-8γ (α+γ); RANTES, (RAN); GRO-α, (GRO); MCP-1, (MCP); lymphotactin, (LYM); platelet factor-4, (PF-4); and HNP-1, (HNP). Histograms are means±SEM (minimum n=2).\nas §1\n(§3) For the Solid-Phase Assay, mid-logarithmic phase organisms were prepared, introduced into buffered agarose (PIPES [10 mM, pH 7.5] or MES [2.0 mM, pH 5.5]) to achieve final inocula of 10^6 CFU/ml, and poured into plates. Peptides (0.5 nmol/well [50 nmol/ml]) were added to wells in the seeded matrix, and incubated for 3h at 37° C. Nutrient overlay medium was applied, and assays incubated at 37° C. or 30° C. for bacteria or fungi, respectively. After 24h, zones of inhibition were measured, and results recorded as zones of complete or partial inhibition."}, "[2]": {"system": "Candida albicans (ATCC 36082)", "assay": "Solid-phase antimicrobial assay of kinocidins", "type": "cell-based", "conditions": "C. albicans; pH 5.5 or 7.5, not separated; 0.5 nmol/well", "procedure": "as §2, §1, §3"}, "[3]": {"system": "Staphylococcus aureus (ATCC 27217)", "assay": "Solid-phase antimicrobial assay of kinocidins", "type": "cell-based", "conditions": "S. aureus (Gram-positive); pH 5.5 or 7.5, not separated; 0.5 nmol/well", "procedure": "as §2, §1, §3"}, "[4]": {"system": "Escherichia coli strain ML-35", "assay": "Ex vivo biomatrix assay in human whole blood, plasma and serum", "type": "cell-based", "text": "FIG. 18A-B show antimicrobial efficacy of IL-8α in human blood and blood-derived matrices as compared with artificial media (MHB) at pH 5.5 and 7.2. […] The E. coli inocula (INOC) were 10^5 CFU/ml, and the threshold of sensitivity was considered 0.3 log 10 CFU/ml.\nTo assess the physiological relevance of the observed in vitro (solid and solution-phase) antimicrobial activity for IL-8 and IL-8α, we assessed the efficacy of IL-8α in the ex vivo biomatrix assay. This assay has been developed to assess antimicrobial polypeptide efficacy in complex human blood matrices. Antimicrobial activity of IL-8α in human whole blood and homologous plasma and serum fractions was assessed (Yeaman, M. R., Gank, K. D., Bayer, A. S., and Brass, E. P. (2002) Antimicrob Agents Chemother 46, 3883-3891). For biomatrix studies, the well-characterized Escherichia coli strain ML-35 was used as the target organism (Lehrer, R. I., Barton, A., Daher, K, A., Harwig, S. S., Ganz, T., and Selsted, M. E. (1989) J Clin Invest 84, 553-561). This strain is resistant to serum, ideal for use in assessing peptide antimicrobial activity in blood and blood-derived matrices (Yeaman, M. R., Gank, K. D., Bayer, A. S., and Brass, E. P. (2002) Antimicrob Agents Chemother 46, 3883-3891). Organisms were cultured to mid-logarithmic phase in brain-heart infusion broth (Difco Laboratories, Detroit, Mich.) at 37° C., washed, and resuspended in PBS (Irvine Scientific; pH 7.2). Inocula were quantified spectrophotometrically and validated by quantitative culture. Biomatrices were distributed in 85-l aliquots into 96-well microtiter plates (Corning Glass Works, Corning, N.Y.) Peptide (5l; concentration range 1.0-50.0 μg/ml) was added either simultaneously with the microorganism (10 μl; 10^5 CFU/ml), or after a 120 min pre-incubation period in the biomatrix. The mixtures were incubated with constant agitation for 2 h at 37° C. After incubation, aliquots were diluted and quantitatively cultured in triplicate onto blood agar. Surviving organisms were enumerated as CFU/ml. […]"}},
  "data": [
    {"sequence": "KENWVQRVVEKFLKRAENS [IL-8α, synthetic α-helix domain of IL-8 (CXCL8)]", "values": [
      {"measurement": "activity relative to native IL-8, by mass", "setting": "C. albicans ATCC 36082; C. albicans, solution-phase", "result": 10, "unit": "fold"},
      {"measurement": "reduction in surviving C. albicans", "setting": "C. albicans ATCC 36082; pH 5.5, 0.125 nmol/ml (1.0 μg/ml), 1 hour exposure", "result": "five"},
      {"measurement": "antimicrobial activity (zone of inhibition)", "setting": "[1]", "result": "virtually indistinguishable from that of the native molecule"},
      {"measurement": "antifungal activity (zone of inhibition)", "setting": "[2]", "result": "virtually indistinguishable from that of the native molecule"},
      {"measurement": "antimicrobial activity (zone of inhibition)", "setting": "[3]", "result": "virtually indistinguishable from that of the native molecule"},
      {"measurement": "decrease in E. coli CFU", "setting": "[4]; 10 μg/ml peptide, human blood and blood-derived matrices, 2 h at 37° C.", "result": "≤ 5", "unit": "log CFU/ml"},
      {"measurement": "antimicrobial efficacy in biomatrix", "setting": "[4]; plasma fractions or after 2 hour preincubation", "result": "less activity"},
      {"measurement": "antimicrobial efficacy in biomatrix", "setting": "[4]; whole blood and serum, co-incubation", "result": "Greatest efficacy"}
    ]}
  ]
}
